Paper PMC11881343, “Safety of ilunocitinib tablets (Zenrelia™) after once daily oral administration in dogs” (BMC Veterinary Research, 2025)

Legend:
[1] = 6-month safety study: body weights and food consumption; assay type: in vivo, dog
Experimental: (§1) Endpoints measured multiple times post-treatment that included a pre-treatment measurement (Serum chemistry, C-reactive protein, coagulation, hematology, urinalysis, body weight, body weight changes and food consumption) were analyzed using repeated measures analysis of covariance (RMANCOVA) with ‘treatment’, ‘time’, and ‘sex’; the two-way interactions ‘treatment by time’, ‘treatment by sex’, and ‘sex by time’; the three-way interaction ‘treatment by time by sex’ and a covariate all as fixed effects. The last available pre-treatment value was used as the covariate.

healthy Beagle dogs = assay: 6-month safety study: clinical pathology (hematology, coagulation, clinical chemistry, C-reactive protein, urinalysis); assay type: in vivo, dog; settings: for MCHC, effect compared to 0X / Hb (hemoglobin), effect compared to 0X / Total Protein, effect compared to 0X / MCH, effect compared to 0X / HCT (hematocrit), effect compared to 0X / RBC, effect compared to 0X: all study days; for Hb (hemoglobin), effect compared to 0X / HCT (hematocrit), effect compared to 0X / RBC, effect compared to 0X: pooled sexes; for Total Protein, effect compared to 0X: significant in pooled by sex, males (2X, 3X, 5X) females (3X, 5X); for Albumin, effect compared to 0X: beginning on study day 57; for Eosinophils, effect compared to 0X: study days 29–183, females only; for Fibrinogen, effect compared to 0X: study days 57–183, association with interdigital cysts
Experimental: Blood samples were collected from the jugular vein for the evaluation of hematology, clinical chemistry and coagulation variables at pre-test, and on study days 29, 57, 85, 113, 141, 169 and 183. The complete panel of clinical pathology parameters (hematology, blood chemistry and urinalysis) according to VICH Guideline 43 [10] are listed in Table 1. Urine samples were collected using steel pans placed under the cages for at least 16 h at the same timepoints.
as §1
If the interaction terms were significant (P ≤ 0.10 level for two-way interactions and P ≤ 0.05 for the three-way interaction), treated groups were compared to the control either within each sex (treatment by sex significant), within each time point (treatment by time significant) or main effect only (neither treatment by sex nor treatment by time significant).

[2] = dog, in vivo
Experimental: (§2) Samples were collected at pre-dose and at 0.5, 1, 2, 5, 8 and 24 h post-dosing on the day of the first and last dose (study days 1 and 182) and at pre-dose and at 1 and 24 h post-dosing at study day 85. Blood samples were collected in tubes containing K2 EDTA. Blood was processed to plasma within one hour of collection and plasma samples were stored frozen at -20 °C until analyzed.
(§3) The bioanalytical data were processed as individual concentration vs. time profiles using a non-compartmental analysis (NCA). Calculations were performed with the software Phoenix WinNonlin (version 8.3; Certara, USA). Tmax and Cmax were derived from observed values. AUCs were calculated using the Linear Up Log Down method. In addition, T1/2 was calculated using the best fit method and dose, time and sex effects were evaluated based on Cmax and AUClast ratios.

[3] = Plasma pharmacokinetics of ilunocitinib (LC-MS/MS, non-compartmental analysis)
Experimental: as §2, §3

[4] = 1X group (0.8 mg/kg/day, 6 months)
[5] = 2X group (1.6 mg/kg/day, 6 months)
[6] = 3X group (2.4 mg/kg/day, 6 months)
[7] = 5X group (4.0 mg/kg/day, 6 months)
[8] = males at 2X, 3X, and 5X and females at 5X, beginning study day 57, 85, or 113 through study day 183

N#CCC1(n2cc(-c3ncnc4[nH]ccc34)cn2)CN(S(=O)(=O)C2CC2)C1 [ilunocitinib]
Body weight gain [1, 4]: 0.06 ± 0.02 kg
mean body weight (± standard error) throughout the study [1, 4]: 10.30 ± 0.20 kg
body weight, treatment effect vs control ([1]; 1X, 3X and 5X groups, main effect of treatment p = 0.0026): statistically significant increases
Body weight gain [1, 5]: 0.03 ± 0.02 kg
mean body weight (± standard error) throughout the study [1, 5]: 9.76 ± 0.20 kg
body weight change, treatment effect vs control ([1]; 3X and 5X, main effect of treatment p = 0.0952): statistically significant increases
Body weight gain [1, 6]: 0.06 ± 0.02 kg
mean body weight (± standard error) throughout the study [1, 6]: 10.31 ± 0.20 kg
Body weight gain [1, 7]: 0.06 ± 0.02 kg
mean body weight (± standard error) throughout the study [1, 7]: 10.46 ± 0.20 kg
weekly averaged daily food consumption, treatment effect ([1]; all dose groups): statistically significant (p = 0.0872) time by treatment interaction
red cell parameters (healthy Beagle dogs; 1X group): stayed within the reference range
MCHC, effect compared to 0X (healthy Beagle dogs; 2X (1.6 mg/kg/day)): minimally lower and ↓
Hb (hemoglobin), effect compared to 0X (healthy Beagle dogs; 2X (1.6 mg/kg/day)): minimally lowered and ↓
Total Protein, effect compared to 0X (healthy Beagle dogs; 2X (1.6 mg/kg/day)): ↑
MCH, effect compared to 0X (healthy Beagle dogs; 3X (2.4 mg/kg/day)): minimally lower and ↓
MCHC, effect compared to 0X (healthy Beagle dogs; 3X (2.4 mg/kg/day)): minimally lower and ↓
HCT (hematocrit), effect compared to 0X (healthy Beagle dogs; 3X (2.4 mg/kg/day)): ↓
Hb (hemoglobin), effect compared to 0X (healthy Beagle dogs; 3X (2.4 mg/kg/day)): minimally lowered and ↓
RBC, effect compared to 0X (healthy Beagle dogs; 3X (2.4 mg/kg/day)): ↓
Total Protein, effect compared to 0X (healthy Beagle dogs; 3X (2.4 mg/kg/day)): ↑
Albumin, effect compared to 0X (healthy Beagle dogs; 3X (2.4 mg/kg/day)): minimally lower and ↓
Total Protein, effect compared to 0X (time by treatment interaction) (healthy Beagle dogs; 3X (2.4 mg/kg/day), study day 113): minimally higher means and ↑
Eosinophils, effect compared to 0X (healthy Beagle dogs; 3X (2.4 mg/kg/day)): ↓
Fibrinogen, effect compared to 0X (healthy Beagle dogs; 3X (2.4 mg/kg/day)): marginally elevated concentrations and ↑
MCH, effect compared to 0X (healthy Beagle dogs; 5X (4.0 mg/kg/day)): minimally lower and ↓
MCHC, effect compared to 0X (healthy Beagle dogs; 5X (4.0 mg/kg/day)): minimally lower and ↓
HCT (hematocrit), effect compared to 0X (healthy Beagle dogs; 5X (4.0 mg/kg/day)): ↓
Hb (hemoglobin), effect compared to 0X (healthy Beagle dogs; 5X (4.0 mg/kg/day)): minimally lowered and ↓
RBC, effect compared to 0X (healthy Beagle dogs; 5X (4.0 mg/kg/day)): ↓
Total Protein, effect compared to 0X (healthy Beagle dogs; 5X (4.0 mg/kg/day)): ↑
Albumin, effect compared to 0X (healthy Beagle dogs; 5X (4.0 mg/kg/day)): minimally lower and ↓
Eosinophils, effect compared to 0X (healthy Beagle dogs; 5X (4.0 mg/kg/day)): ↓
Fibrinogen, effect compared to 0X (healthy Beagle dogs; 5X (4.0 mg/kg/day)): marginally elevated concentrations and ↑
Total Protein, effect compared to 0X (time by treatment interaction) (healthy Beagle dogs; 5X (4.0 mg/kg/day), study days 85,113,141): minimally higher means and ↑
myeloid: erythroid ratios (healthy Beagle dogs; Two dogs in the 5X group): minimally lower
effects on lymphocytes, monocytes, basophils and reticulocytes (healthy Beagle dogs; all dose levels): no treatment-related effects
alkaline phosphatase, alanine aminotransferase, aspartate aminotransferase, triglycerides, plasma creatinine and urea levels or any other clinical chemistry parameters (healthy Beagle dogs; all treatment groups, within normal ranges): No changes
effects on urinalysis endpoints (healthy Beagle dogs; either sex at any dose level): no test article-related effects
C-reactive protein (CRP) levels (healthy Beagle dogs; elevated doses, dogs with visible skin disease): higher
Total protein values in males vs control (healthy Beagle dogs; males at 2X, 3X, and 5X): significantly (p = 0.0437) higher
Mean globulin concentrations vs control means (healthy Beagle dogs; [8]): minimally higher
mean albumin/globulin ratios vs control means (healthy Beagle dogs; [8]): minimally to mildly lower
prothrombin time and activated partial thromboplastin time (healthy Beagle dogs; throughout the study, all dose levels): remained in the reference range
half-life [2]: approximately 3 h
increase of exposure with dose [2]: close to dose proportional
AUC ratio, study day 182 vs day 1 ([3]; group 2 (1X: 0.8 mg/kg)): 1.2
AUC ratio, study day 182 vs day 1 ([3]; group 3 (2X: 1.6 mg/kg)): 1.4
AUC ratio, study day 182 vs day 1 ([3]; group 4 (3X: 2.4 mg/kg)): 1.6
AUC ratio, study day 182 vs day 1 ([3]; group 5 (5X: 4.0 mg/kg)): 1.2
